Biological target: T1, CCR5 (Homo sapiens, UniProt P51681)
T1 construct: expressed in transfected cells
Assay: Inhibition of CCR5: [35S]GTPγS binding assays (filtration, SPA-WGA) and calcium influx assay, 10 nM RANTES, CHO-CCR5
Assay type: biochemical
Settings: for IC50: inhibition of GTPγS binding induced by 10 nM RANTES, CHO-CCR5
Procedure: CCR5 belongs to G-Protein-Coupled Receptor (GPCR) family. The developing technology of GPCR-based drugs have been well-developed, among them, the experimental techniques such as ligand-receptor binding assay, GTPγS binding assay and Ca^2+ flux assay have been widely used in drug-screening related to chemokine receptors. The inhibitory activities of the compounds according to the present invention against CCR5 are measured by three methods, i.e., [^35S]GTPγS filter binding assay, SPA-WGA-based [^35S]GTPγS binding assay and calcium influx assay. At the same time, the antiviral activities in cell of the compounds according to the present invention are evaluated by using two kinds HIV-1 subtypes: H4DA5 cell model and PBMC system virus replication model.
A. [^35S]GTPγS Binding Assay
After binding with an agonist, CCR5 experiences a conformation change such that CCR5 interacts with G protein so as to active the G protein. G protein is a tripolymer composed of α-subunit and βγ-subunit. Since the ability of α-subunit binding to GTP depends on the interaction of CCR5 with the agonist, the ability of an agonist for activating CCR5 can be reflected by determining the amount of GTP binding to α-subunit. In a GTPγS binding assay, a ^35S-labeled GTP analogue GTPγS, which can bind with an activated α-subunit without being hydrolyzed, is used to replace GTP in order for eliminating the defect that the amount of GTP binding to G protein can not exactly reflect the activation of CCR5 due to the hydrolysis of GTO by GTPase and for convenience of detection. So, α-subunit binds with GDP when CCR5 is not activated, and after the activation of CCR5, α-subunit binds with GTPγS such that GTPγS irreversible binds to α-subunit. Therefore, the amount of [^35S]-GTPγS binding to α-subunit could reflect the level of CCR5 activated by an agonist. The ability of the agonist for activating CCR5 will decrease when an antagonist is added.
Such experiment has been referred to as GTPγS filtration assay in which [^35S]-GTPγS bound with the free G protein could be separated by membrane filtration.
Alternatively, SPA (Scintillation Proximity Assay) technique can be used to detect the [^35S]-GTPγS bound to G protein, which is called SPA-WGA-based [35S]GTPγS binding assay. The principle of SPA technique is as follows. Sub-atomic particles released during the decay of radioactive atoms, for example β-ray (electron), can excite microspheres at a sufficiently close distance to emit light so as to be detected by a Scintillation Counter. In an aqueous solution, most of the energy of these rays is absorbed by the solvent, and the traveling distance of these rays is limited.
The activation of G protein by CCR5 is determined by the following experiments.
CHO (Chinese hamster ovary cell) permanent cell line expressing CCR5 (CHO-CCR5) (a cell line constructed by Shanghai Targetdrug Ltd.) was lysed with a lysis buffer (5 mM Tris-HCl, pH 7.5, 5 mM EDTA and 5 mM EGTA) and then centrifugated at 15,000×g for 10 min to obtain cell membrane. After the cell membrane was resuspended in a reaction buffer (5 mM Tris-HCl, pH 7.5, 5 mM MgCl2, 1 mM EGTA, 100 mM NaCl), the protein concentration was determined using Bioford Protein Assay Kit manufactured by Bio-Rad Laboratories Inc. Subsequently, GTPγS binding assay was performed in the reaction buffer, wherein the reaction system was 100 μL containing 10 μg membrane protein, 40 μM GDP and 0.5 nM [^35S]-GTPγS (1200 Ci/mmol). After the compound to be tested (the compound was first dissolved in DMSO and then diluted in gradient with the reaction buffer according to the specific situation, wherein the final concentration of DMSO was 1% (v/v) in the whole reaction system) was added and shaken to mix homogeneously, the reaction tube was incubated at 30° C. for 1 hour. After the reaction finished, the tube was placed on ice, and the reaction mixture was diluted with PBS to quench the reaction and filtered under reduced pressure with a GF/C filter membrane. […]

T1 sequence (P51681 whole entry): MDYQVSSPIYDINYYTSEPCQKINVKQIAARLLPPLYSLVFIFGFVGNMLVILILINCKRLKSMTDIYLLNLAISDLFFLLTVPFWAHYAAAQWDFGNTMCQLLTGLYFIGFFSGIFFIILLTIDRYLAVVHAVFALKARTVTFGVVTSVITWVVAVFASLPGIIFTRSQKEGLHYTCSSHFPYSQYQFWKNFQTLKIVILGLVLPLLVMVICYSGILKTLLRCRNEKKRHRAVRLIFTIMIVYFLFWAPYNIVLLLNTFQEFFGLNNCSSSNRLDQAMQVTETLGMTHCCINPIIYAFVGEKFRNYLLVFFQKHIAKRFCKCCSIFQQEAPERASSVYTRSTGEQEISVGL

IC50 [nM] | Compound | inhibition at 0.03 µM (read-out: inhibition against CCR5 @30 nM) [%] | inhibition at 0.3 µM (read-out: inhibition against CCR5 @300 nM) [%]
– | CC(=O)N1CCC(C(=O)N(CCCN2C3CCC2CC(NC(=O)Cc2ccccc2)C3)c2ccc(C)c(Cl)c2)CC1 (stereo not drawn) [Compound 7a, 1-acetyl-N-(3-chloro-4-methylphenyl)-N-(3-(3-exo-(2-phenylacetamido)-8-azabicyclo[3.2.1]oct-8-yl)propyl)-4-piperidinylcarboxamide] | 26.2 | 64.6
31.1 | CC(=O)N1CCC(C(=O)N(CCCN2[C@@H]3CC[C@H]2C[C@H](NC(=O)Cc2ccc(F)cc2)C3)c2ccc(C)c(Cl)c2)CC1 [Compound 7b, 1-acetyl-N-(3-chloro-4-methylphenyl)-N-(3-(3-exo-(2-(4-fluorphenyl)acetamido)-8-azabicyclo[3.2.1]oct-8-yl)propyl)-4-piperidinylcarboxamide] | – | –
15.1 | CC(=O)N1CCC(C(=O)N(CCCN2[C@@H]3CC[C@H]2C[C@H](NC(=O)Cc2ccc(Cl)cc2)C3)c2ccc(C)c(Cl)c2)CC1 [Compound 7c, 1-acetyl-N-(3-chloro-4-methylphenyl)-N-(3-(3-exo-(2-(4-chlorphenyl)acetamido)-8-azabicyclo[3.2.1]oct-8-yl)propyl)-4-piperidinylcarboxamide] | – | –
49.4 | CC(=O)N1CCC(C(=O)N(CCCN2[C@@H]3CC[C@H]2C[C@H](NC(=O)Cc2ccc(C(F)(F)F)cc2)C3)c2ccc(C)c(Cl)c2)CC1 [Compound 7d, 1-acetyl-N-(3-chloro-4-methylphenyl)-N-(3-(3-exo-(2-(4-(trifluoromethyl)phenyl)acetamido)-8-azabicyclo[3.2.1]oct-8-yl)propyl)-4-piperidinylcarboxamide] | – | –
209 | CC(=O)N1CCC(C(=O)N(CCCN2C3CCC2CC(NC(=O)CC24CC5CC(CC(C5)C2)C4)C3)c2ccc(C)c(Cl)c2)CC1 (stereo not drawn) [Compound 7e, 1-acetyl-N-(3-chloro-4-methylphenyl)-N-(3-(3-exo-(2-(1-adamantyl)acetamido)-8-azabicyclo[3.2.1]oct-8-yl)propyl)-4-piperidinylcarboxamide] | – | –
20 | CC(=O)N1CCC(C(=O)N(CCCN2[C@@H]3CC[C@H]2C[C@H](NC(=O)Cc2ccc([N+](=O)[O-])cc2)C3)c2ccc(C)c(Cl)c2)CC1 [Compound 7f, 1-acetyl-N-(3-chloro-4-methylphenyl)-N-(3-(3-exo-(2-(4-nitrophenyl)acetamido)-8-azabicyclo[3.2.1]oct-8-yl)propyl)-4-piperidinylcarboxamide] | – | –
48.2 | CC(=O)N1CCC(C(=O)N(CCCN2[C@@H]3CC[C@H]2C[C@H](NC(=O)Cc2ccc(O)cc2)C3)c2ccc(C)c(Cl)c2)CC1 [Compound 7g, 1-acetyl-N-(3-chloro-4-methylphenyl)-N-(3-(3-exo-(2-(4-hydroxyphenyl)acetamido)-8-azabicyclo[3.2.1]oct-8-yl)propyl)-4-piperidinylcarboxamide] | – | –
4.89 | CC(=O)N1CCC(C(=O)N(CCCN2[C@@H]3CC[C@H]2C[C@H](NC(=O)Cc2ccc(Cl)c(Cl)c2)C3)c2ccc(C)c(Cl)c2)CC1 [Compound 7h, 1-acetyl-N-(3-chloro-4-methylphenyl)-N-(3-(3-exo-(2-(3,4-dichlorophenyl)acetamido)-8-azabicyclo[3.2.1]oct-8-yl)propyl)-4-piperidinylcarboxamide] | – | –
11.6 | CC(=O)N1CCC(C(=O)N(CCCN2[C@@H]3CC[C@H]2C[C@H](NC(=O)Cc2ccc(S(C)(=O)=O)cc2)C3)c2ccc(C)c(Cl)c2)CC1 [Compound 7k, 1-acetyl-N-(3-chloro-4-methylphenyl)-N-(3-(3-exo-(2-(4-(methylsulphonyl)phenyl)acetamido)-8-azabicyclo[3.2.1]oct-8-yl)propyl)-4-piperidinylcarboxamide] | – | –
3.46 | CC(=O)N1CCC(C(=O)N(CCCN2[C@@H]3CC[C@H]2C[C@H](NC(=O)Cc2ccc(S(=O)(=O)N4CCOCC4)cc2)C3)c2ccc(C)c(Cl)c2)CC1 [Compound 7l, 1-acetyl-N-(3-chloro-4-methylphenyl)-N-(3-(3-exo-(2-(4-(morpholinosulfonyl)phenyl)acetamido)-8-azabicyclo[3.2.1]oct-8-yl)propyl)-4-piperidinylcarboxamide] | – | –
7.54 | CC(=O)N1CCC(C(=O)N(CCCN2[C@@H]3CC[C@H]2C[C@H](NC(=O)Cc2ccc(S(=O)(=O)NC(C)(C)C)cc2)C3)c2ccc(C)c(Cl)c2)CC1 [Compound 7m, 1-acetyl-N-(3-(3-exo-(2-(4-(N-tert-butylsulphonyl)phenyl)acetamido)-8-azabicyclo[3.2.1]oct-8-yl)propyl)-N-(3-chloro-4-methylphenyl)-4-piperidinylcarboxamide] | – | –
4.75 | CC(=O)N1CCC(C(=O)N(CCCN2[C@@H]3CC[C@H]2C[C@H](NC(=O)Cc2cccc4ccccc24)C3)c2ccc(C)c(Cl)c2)CC1 [Compound 7n, 1-acetyl-N-(3-chloro-4-methylphenyl)-N-(3-(3-exo-(2-(1-naphthyl)acetamido)-8-azabicyclo[3.2.1]oct-8-yl)propyl)-4-piperidinylcarboxamide] | – | –
697 | CC(=O)N1CCC(C(=O)N(CCCN2[C@@H]3CC[C@H]2C[C@H](NC(=O)Cc2ccc4ccccc4c2)C3)c2ccc(C)c(Cl)c2)CC1 [Compound 7o, 1-acetyl-N-(3-chloro-4-methylphenyl)-N-(3-(3-exo-(2-(2-naphthyl)acetamido)-8-azabicyclo[3.2.1]-oct-8-yl)propyl)-4-piperidinylcarboxamide] | – | –
82 | CC(=O)N1CCC(C(=O)N(CCCN2[C@@H]3CC[C@H]2C[C@H](NC(=O)Cc2c[nH]c4ccccc24)C3)c2ccc(C)c(Cl)c2)CC1 [Compound 7q, N-(3-(3-exo-(2-(3-indolyl)acetamido)-8-azabicyclo[3.2.1]oct-8-yl)propyl)-1-acetyl-N-(3-chloro-4-methylphenyl)-4-piperidinylcarboxamide] | – | –
20.3 | COc1cc(CC(=O)N[C@@H]2C[C@H]3CC[C@@H](C2)N3CCCN(C(=O)C2CCN(C(C)=O)CC2)c2ccc(C)c(Cl)c2)cc(OC)c1OC [Compound 7r, 1-acetyl-N-(3-chloro-4-methylphenyl)-N-(3-(3-exo-(2-(3,4,5-trimethoxylphenyl)acetamido)-8-azabicyclo[3.2.1]oct-8-yl)propyl)-4-piperidinylcarboxamide] | – | –
3.34 | CC(=O)N1CCC(C(=O)N(CCCN2[C@@H]3CC[C@H]2C[C@H](NC(=O)Cc2ccc([N+](=O)[O-])c4ccccc24)C3)c2ccc(C)c(Cl)c2)CC1 [Compound 7s, 1-acetyl-N-(3-chloro-4-methylphenyl)-N-(3-(3-exo-(2-(4-nitro-1-naphthyl)acetamido)-8-azabicyclo[3.2.1]oct-8-yl)propyl)-4-piperidinylcarboxamide] | – | –

Compound | IC50 [nM] | inhibition at 0.03 µM (read-out: inhibition against CCR5 @30 nM) [%] | inhibition at 0.3 µM (read-out: inhibition against CCR5 @300 nM) [%]
1-acetyl-N-(3-chloro-4-methylphenyl)-N-(3-(3-exo-(2-(4-(pyrrolidine-1-sulfonyl)phenyl)acetamido)-8-azabicyclo[3.2.1]oct-8-yl)propyl)-4-piperidinylcarboxamide [Compound 7i] | 2.97 | – | –
CC(=O)N1CCC(C(=O)N(CCCN2[C@@H]3CC[C@H]2C[C@H](NC(=O)Cc2ccc(S(=O)(=O)N(C)C)cc2)C3)c2ccc(C)c(Cl)c2)CC1 [Compound 7j, 1-acetyl-N-(3-chloro-4-methylphenyl)-N-(3-(3-exo-(2-(4-(N,N-dimethylsulphonyl)phenyl)acetamido)-8-azadicyclo[3.2.1]oct-8-yl)propyl)-4-piperidinylcarboxamide] | 3.08 | – | –
CC(=O)N1CCC(C(=O)N(CCCN2C3CCC2CC(NC(=O)C(O)c2ccccc2)C3)c2ccc(C)c(Cl)c2)CC1 (stereo not drawn) [Compound 7p, 1-acetyl-N-(3-chloro-4-methylphenyl)-N-(3-(3-exo-(2-hydroxyl-2-phenylacetamido)-8-azabicyclo[3.2.1]oct-8-yl)propyl)-4-piperidinylcarboxamide] | 51.5 | – | –
